Consider four cell lines from the supplement of paper PMC10307832.

Common to all, as to test: relative viability (nuclei count vs DMSO), 5 days (fraction); higher = more cells survive
Compound in experiment [1]: COc1cc2nccc(Oc3ccc(NC(=O)C4(C(=O)Nc5ccc(F)cc5)CC4)cc3)c2cc1OC [Cabozantinib] + COc1cccc2cc(-c3nc([C@H]4CC[C@H](C(=O)O)CC4)n4ncnc(N)c34)[nH]c12 [OSI-027] (partner 0.5 µM)
The method in brief: (§1)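 Relative viability equals treated-well nuclei counts divided by vehicle-well nuclei counts. Counts came from 4× images of lung cancer cell lines grown in 1536-well plates for 5 days after pin-tool dosing on the day after seeding. Dosing used one drug alone or a fixed anchor-drug dose plus five library-drug doses (not always all listed) in √10 steps, and values are medians of duplicate plates.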

Compound in experiment [2]: O[C@@H](COc1cccc2ncccc12)CN1CCN([C@@H]2c3ccccc3[C@@H]3[C@H](c4ccccc42)C3(F)F)CC1 [Zosuquidar] + CC(=O)c1c(C)c2cnc(Nc3ccc(N4CCNCC4)cn3)nc2n(C2CCCC2)c1=O [Palbociclib] (partner 0.5 µM)
The method in brief: as §1

Compound in experiment [3]: O[C@@H](COc1cccc2ncccc12)CN1CCN([C@@H]2c3ccccc3[C@@H]3[C@H](c4ccccc42)C3(F)F)CC1 [Zosuquidar] + COc1cc2c(Oc3ccc(NC(=O)C4(C(=O)Nc5ccc(F)cc5)CC4)cc3F)ccnc2cc1OCCCN1CCOCC1 [Foretinib] (partner 0.25 µM)
Summed up: as §1

Compound in experiment [4]: O[C@@H](COc1cccc2ncccc12)CN1CCN([C@@H]2c3ccccc3[C@@H]3[C@H](c4ccccc42)C3(F)F)CC1 [Zosuquidar] + CS(=O)(=O)N1CCN(Cc2cc3nc(-c4cccc5[nH]ncc45)nc(N4CCOCC4)c3s2)CC1 [Pictilisib] (partner 1 µM)
The method in brief: as §1

As for NCI-H1650, the relative viability in experiment [1] (first compound 0.02 µM) worked out at 0.597; in experiment [1] (first compound 0.06325 µM) it was 0.724; in experiment [1] (first compound 0.2 µM), 0.438; in experiment [1] (first compound 0.6325 µM), 0.622; in experiment [1] (first compound 2 µM), 0.484; in experiment [2] (first compound 0.01 µM), 0.373. Moreover, the relative viability in experiment [2] (first compound 0.03162 µM) was 0.31; in experiment [2] (first compound 0.1 µM) it was 0.365; in experiment [2] (first compound 0.3162 µM), 0.351; in experiment [2] (first compound 1 µM) it was 0.337; in experiment [3] (first compound 0.01 µM), 1.12; in experiment [3] (first compound 0.03162 µM), 1.04. Moreover, the relative viability in experiment [3] (first compound 0.1 µM) came to 1.21; in experiment [3] (first compound 0.3162 µM), 1.15; in experiment [3] (first compound 1 µM) it was 1.49; in experiment [4] (first compound 0.01 µM), 0.555; in experiment [4] (first compound 0.03162 µM), 0.688; in experiment [4] (first compound 0.1 µM), 0.531. For the same cell line, the relative viability amounted to 0.686 in experiment [4] (first compound 0.3162 µM) and 0.586 in experiment [4] (first compound 1 µM).

In the case of NCI-H1651, the relative viability was found to be 0.725 in experiment [1] (first compound 0.02 µM); 0.69 in experiment [1] (first compound 0.06325 µM); 0.612 in experiment [1] (first compound 0.2 µM); 0.796 in experiment [1] (first compound 0.6325 µM); 0.581 in experiment [1] (first compound 2 µM); 0.509 in experiment [2] (first compound 0.01 µM). Further, the relative viability in experiment [2] (first compound 0.03162 µM) turned out to be 0.537; in experiment [2] (first compound 0.1 µM), 0.489; in experiment [2] (first compound 0.3162 µM), 0.508; in experiment [2] (first compound 1 µM), 0.511; in experiment [3] (first compound 0.01 µM), 0.763; in experiment [3] (first compound 0.03162 µM), 0.845. Also, the relative viability in experiment [3] (first compound 0.1 µM) stood at 0.703; in experiment [3] (first compound 0.3162 µM), 0.863; in experiment [3] (first compound 1 µM), 0.778; in experiment [4] (first compound 0.01 µM) it was 0.589; in experiment [4] (first compound 0.03162 µM), 0.661; in experiment [4] (first compound 0.1 µM), 0.559. Besides, the relative viability in experiment [4] (first compound 0.3162 µM) was determined as 0.668; in experiment [4] (first compound 1 µM), 0.615.

On to NCI-H1666, for which the relative viability in experiment [1] (first compound 0.02 µM) stood at 0.694; in experiment [1] (first compound 0.06325 µM) it was 0.836; in experiment [1] (first compound 0.2 µM), 0.816; in experiment [1] (first compound 0.6325 µM), 0.846; in experiment [1] (first compound 2 µM), 0.913; in experiment [2] (first compound 0.01 µM), 0.56. For the same cell line, the relative viability worked out at 0.715 in experiment [2] (first compound 0.03162 µM); 0.668 in experiment [2] (first compound 0.1 µM); 0.757 in experiment [2] (first compound 0.3162 µM); 0.648 in experiment [2] (first compound 1 µM); 0.946 in experiment [3] (first compound 0.01 µM); 1.01 in experiment [3] (first compound 0.03162 µM). Besides, the relative viability was 0.976 in experiment [3] (first compound 0.1 µM); 1.02 in experiment [3] (first compound 0.3162 µM); 0.942 in experiment [3] (first compound 1 µM); 0.458 in experiment [4] (first compound 0.01 µM); 0.491 in experiment [4] (first compound 0.03162 µM); 0.52 in experiment [4] (first compound 0.1 µM). The relative viability turned out to be 0.517 in experiment [4] (first compound 0.3162 µM) and 0.274 in experiment [4] (first compound 1 µM).

For NCI-H1734, the relative viability came to 0.433 in experiment [1] (first compound 0.02 µM); 0.611 in experiment [1] (first compound 0.06325 µM); 0.59 in experiment [1] (first compound 0.2 µM); 0.586 in experiment [1] (first compound 0.6325 µM); 0.573 in experiment [1] (first compound 2 µM); 0.337 in experiment [2] (first compound 0.01 µM). Further, the relative viability in experiment [2] (first compound 0.03162 µM) came out at 0.383; in experiment [2] (first compound 0.1 µM) it was 0.404; in experiment [2] (first compound 0.3162 µM), 0.306; in experiment [2] (first compound 1 µM), 0.344; in experiment [3] (first compound 0.01 µM), 0.816; in experiment [3] (first compound 0.03162 µM), 0.868. The relative viability was found to be 0.775 in experiment [3] (first compound 0.1 µM); 0.938 in experiment [3] (first compound 0.3162 µM); 0.817 in experiment [3] (first compound 1 µM); 0.388 in experiment [4] (first compound 0.01 µM); 0.484 in experiment [4] (first compound 0.03162 µM); 0.399 in experiment [4] (first compound 0.1 µM). In addition, the relative viability stood at 0.471 in experiment [4] (first compound 0.3162 µM) and 0.478 in experiment [4] (first compound 1 µM).
